Assay results reported in US20180110762A1, “Compositions Methods for Treating Chronic Kidney Disease” (Merck Sharp & Dohme Corp, priority 2015, published 2018).

Key:
[1] = biological target: T1, Human recombinant integrin αvβ3 (Homo sapiens, UniProt P05106+P06756); assay: Solid phase receptor assay, αvβ3 (vitronectin); format: binding
T1 construct: purchased R&D Systems
Description: The assay was performed according to the method described in International Patent Publication WO 2014/015054 A1 “Beta Amino Acid Derivatives As Integrin Antagonists.” Briefly, 96-well plates were coated overnight with purified fibronectin or vitronectin (R&D Systems) in TBS+ buffer (25 mM Tris 7.4, 137 mM NaCl, 2.7 mM KCl, 1 mM CaCl2, 1 mM MgCl2, 1 mM MnCl2). Compound A was added at different concentrations to recombinant human integrin proteins (R&D Systems) reconstituted in TBS+/0.1% bovine serum albumin, and 50 μL of this mixture were added to the empty wells of the coated plate and incubated for 1-2 hours. After 3 washes, 50 μL of biotinylated antibody (R&D Systems) in TBS+/0.1% bovine serum albumin were added. The procedure continued with three more washes, addition of 50 μL of streptavidin-conjugated horseradish peroxidase (R&D Systems), and incubation for 20 minutes. After 3 more washes, 50 μL of tetramethylbenzidine (TMB) substrate (SIGMA) were added and plates were read after 20 min by colorimetric detection at 650 nm wavelength in an EnVision Multilabel Plate Reader (Perkin Elmer). The concentrations of fibronectin used were: 2 μg/mL for the α5β1 assay and 5 μg/mL for the αvβ1 assay. The concentrations of vitronectin used were: 1 μg/mL for the αvβ3 assay and 0.25 μg/mL for the αvβ5 assay. […]

[2] = biological target: T2, Human recombinant integrin αvβ1 (Homo sapiens, UniProt P05556+P06756); assay: Thermal shift assay (differential scanning fluorimetry), αvβ1; format: binding; details: αvβ1, 20 μM Compound A
T2 construct: purchased R&D Systems
Description: (§1) Differential scanning fluorimetry was performed on a LightCycler 480 II, real-time PCR instrument (Roche Diagnostics). Human recombinant integrins from R&D Systems (αvβ1, αvβ3 and α5β1) were reconstituted at a concentration of […] in assay buffer (20 mM HEPES, pH=7.3, 100 mM NaCl, 1 mM MgCl2, 1 mM MnCl2) and diluted in assay buffer with Sypro orange (SIGMA) to a final concentration of 400 nM integrin and 5× Sypro orange. A volume of 4.9 μL of this mixture of protein and dye was transferred to a 384-well plate and 100 nL of DMSO or Compound A, dissolved in DMSO, were added using an Echo 555 instrument (Labcyte). The final concentration of Compound A in the assay was 20 μM. After mixing, the assay plate was sealed, spun at 1,000×g for two minutes, and subsequently heated from 25 to 99° C. over the course of 31 min in the LightCycler 480 II instrument. Fluorescence intensity was measured using excitation/emission wavelengths of 465 and 580 nm, respectively. Changes in protein thermal stability (ΔTm) upon compound binding were analyzed by using LightCycler 480 (software provided by the manufacturer).

[3] = biological target: T1, Human recombinant integrin αvβ3; assay: Thermal shift assay (differential scanning fluorimetry), αvβ3; format: binding; details: αvβ3, 20 μM Compound A
Description: as §1

[4] = biological target: T3, Human recombinant integrin α5β1 (Homo sapiens, UniProt P05556+P08648); assay: Thermal shift assay (differential scanning fluorimetry), α5β1; format: binding; details: α5β1, 20 μM Compound A
T3 construct: purchased R&D Systems
Description: as §1

human podocytes [5] = assay: Oris cell migration assay, podocyte motility, Compound A alone, vitronectin coated plate; format: cell-based; details: for % migrated cells vs control cells: 48 h, VN plate
Description: (§2) The effects of Compound A on podocyte motility were evaluated using Oris cell migration assay kit in 96-well plates (coated with either vitronectin or fibronectin). The Oris™ Cell Migration Assay is designed with a unique cell seeding stopper or biocompatible gel, detection mask, and stopper tool. These unique plate designs generate highly reproducible results using a microscope, digital imaging system. 7 to 10-day differentiated human podocytes (100 ul of 50,000 cells/ml) were seeded in each well of the ORIS plate. After sitting at room temperature for about 15 minutes, the plate was placed into 37° C. incubator and podocytes were incubated with complete podocyte medium for 24 h. Stoppers from each well (keeping stoppers in 4 wells which were served as time zero control) were carefully removed, medium discarded, and fresh (10% FBS) podocyte medium added to each well. Podocytes were pretreated with Compound A (10 uM to 0.01 nM) for 2 h prior to puromycin animonucleoside (PAN, 30 ug/ml or 15 ug/ml) treatment. Podocytes were then treated with PAN in the presence or absence of Compound A at different concentrations (ranging from 10 uM to 0.01 nM) in 10% FBS medium for 48 h. Podocytes were then fixed with 4% paraformaldehyde in PBS for 30 minutes (adding 50 ul to each well). After discarding the fixative, podocytes were stained with Hoechst 33342 (stock […] working concentration at 5 uM) for 30 min. Podocytes were then washed with PBS three times. Finally, after adding 100 ul of PBS to each well, plate was sealed with a black cover and kept at 4° C. until image analysis. Images of podocyte motility were captured using Acumen eX3 (manufacturer TTP Labtech Ltd. address: Melbourn Science Park, Melbourn, Hertfordshire SG8 6EE, United Kingdom).
Effect of Compound A (“A”) alone on human podocyte motility was examined using Oris cell migration assay in vitronectin (VN) coated-96-well plate.

human podocytes [6] = assay: Oris cell migration assay, PAN-induced podocyte motility, fibronectin coated plate; format: cell-based; details: 48 h; for % migrated cells vs control cells: FN plate
Description: as §2
Effect of Compound A (“A”) on human podocyte motility was examined using Oris cell migration assay in fibronectin (FN) coated-96-well plate.

T1 sequence (P06756 31-992 limits assumed): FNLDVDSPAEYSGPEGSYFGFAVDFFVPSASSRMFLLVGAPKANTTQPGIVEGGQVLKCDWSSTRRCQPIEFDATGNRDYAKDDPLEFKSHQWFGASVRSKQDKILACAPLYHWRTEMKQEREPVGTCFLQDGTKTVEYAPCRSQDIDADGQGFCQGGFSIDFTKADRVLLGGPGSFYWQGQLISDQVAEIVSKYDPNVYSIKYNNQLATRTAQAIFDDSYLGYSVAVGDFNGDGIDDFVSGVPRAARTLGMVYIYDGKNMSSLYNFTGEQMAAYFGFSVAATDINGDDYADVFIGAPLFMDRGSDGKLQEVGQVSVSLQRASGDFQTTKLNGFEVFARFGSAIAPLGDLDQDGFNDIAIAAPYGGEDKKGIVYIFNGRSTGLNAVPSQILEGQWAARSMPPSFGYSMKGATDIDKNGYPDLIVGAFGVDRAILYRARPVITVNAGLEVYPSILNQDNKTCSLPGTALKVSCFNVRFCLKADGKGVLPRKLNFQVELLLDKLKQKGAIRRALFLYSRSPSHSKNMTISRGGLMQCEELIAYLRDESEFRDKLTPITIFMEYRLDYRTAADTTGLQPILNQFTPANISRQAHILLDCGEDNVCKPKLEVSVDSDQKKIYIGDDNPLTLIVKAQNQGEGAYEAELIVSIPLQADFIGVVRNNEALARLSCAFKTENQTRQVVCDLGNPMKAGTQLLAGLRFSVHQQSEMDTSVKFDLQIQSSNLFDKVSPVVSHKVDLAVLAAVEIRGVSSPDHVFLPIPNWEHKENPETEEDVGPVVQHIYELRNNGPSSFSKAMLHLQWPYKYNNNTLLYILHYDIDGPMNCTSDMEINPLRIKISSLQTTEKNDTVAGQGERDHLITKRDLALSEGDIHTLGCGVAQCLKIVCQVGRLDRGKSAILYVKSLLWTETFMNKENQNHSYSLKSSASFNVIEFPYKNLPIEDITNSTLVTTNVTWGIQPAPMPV
T1 sequence (P05106 27-718 limits assumed): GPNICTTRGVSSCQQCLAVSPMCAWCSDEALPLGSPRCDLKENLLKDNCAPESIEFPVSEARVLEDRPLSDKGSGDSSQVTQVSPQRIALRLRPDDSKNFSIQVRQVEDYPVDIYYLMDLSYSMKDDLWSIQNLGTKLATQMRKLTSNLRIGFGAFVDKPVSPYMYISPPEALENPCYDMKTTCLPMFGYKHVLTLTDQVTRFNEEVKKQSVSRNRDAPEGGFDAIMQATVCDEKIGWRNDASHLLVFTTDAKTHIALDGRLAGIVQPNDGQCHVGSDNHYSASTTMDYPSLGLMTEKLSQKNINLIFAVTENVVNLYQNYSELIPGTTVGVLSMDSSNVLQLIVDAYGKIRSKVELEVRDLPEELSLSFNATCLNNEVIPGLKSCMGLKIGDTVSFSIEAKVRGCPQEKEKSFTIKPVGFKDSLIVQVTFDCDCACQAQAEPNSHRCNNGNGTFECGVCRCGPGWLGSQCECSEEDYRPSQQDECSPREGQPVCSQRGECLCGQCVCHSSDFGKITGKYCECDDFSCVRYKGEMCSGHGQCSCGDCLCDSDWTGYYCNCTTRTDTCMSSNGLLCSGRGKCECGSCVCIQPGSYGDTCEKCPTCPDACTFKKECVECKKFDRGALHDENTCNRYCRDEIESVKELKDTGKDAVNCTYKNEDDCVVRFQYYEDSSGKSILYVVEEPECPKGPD
T2 sequence (P06756 31-992 limits assumed): as the sequence (P06756 31-992 limits assumed) above
T2 sequence (P05556 21-728 limits assumed): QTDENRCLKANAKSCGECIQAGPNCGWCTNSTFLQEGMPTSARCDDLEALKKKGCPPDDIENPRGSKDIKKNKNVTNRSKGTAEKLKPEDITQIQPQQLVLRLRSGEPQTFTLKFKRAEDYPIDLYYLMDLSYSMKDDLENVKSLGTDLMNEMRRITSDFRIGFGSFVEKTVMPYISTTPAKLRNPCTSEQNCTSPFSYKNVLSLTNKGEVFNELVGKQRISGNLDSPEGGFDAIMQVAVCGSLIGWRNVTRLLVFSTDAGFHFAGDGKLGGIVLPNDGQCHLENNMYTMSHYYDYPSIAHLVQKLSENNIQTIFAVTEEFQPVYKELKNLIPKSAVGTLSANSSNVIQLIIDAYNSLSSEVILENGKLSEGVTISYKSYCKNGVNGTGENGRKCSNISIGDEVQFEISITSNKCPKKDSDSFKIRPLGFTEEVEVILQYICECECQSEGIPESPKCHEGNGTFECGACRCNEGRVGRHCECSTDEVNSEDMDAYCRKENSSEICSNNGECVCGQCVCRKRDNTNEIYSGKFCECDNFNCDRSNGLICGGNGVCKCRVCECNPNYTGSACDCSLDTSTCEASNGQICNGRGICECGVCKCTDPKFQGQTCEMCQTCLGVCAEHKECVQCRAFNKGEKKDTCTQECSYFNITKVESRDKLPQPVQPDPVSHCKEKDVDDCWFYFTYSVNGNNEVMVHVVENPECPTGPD
T3 sequence (P08648 42-995 limits assumed): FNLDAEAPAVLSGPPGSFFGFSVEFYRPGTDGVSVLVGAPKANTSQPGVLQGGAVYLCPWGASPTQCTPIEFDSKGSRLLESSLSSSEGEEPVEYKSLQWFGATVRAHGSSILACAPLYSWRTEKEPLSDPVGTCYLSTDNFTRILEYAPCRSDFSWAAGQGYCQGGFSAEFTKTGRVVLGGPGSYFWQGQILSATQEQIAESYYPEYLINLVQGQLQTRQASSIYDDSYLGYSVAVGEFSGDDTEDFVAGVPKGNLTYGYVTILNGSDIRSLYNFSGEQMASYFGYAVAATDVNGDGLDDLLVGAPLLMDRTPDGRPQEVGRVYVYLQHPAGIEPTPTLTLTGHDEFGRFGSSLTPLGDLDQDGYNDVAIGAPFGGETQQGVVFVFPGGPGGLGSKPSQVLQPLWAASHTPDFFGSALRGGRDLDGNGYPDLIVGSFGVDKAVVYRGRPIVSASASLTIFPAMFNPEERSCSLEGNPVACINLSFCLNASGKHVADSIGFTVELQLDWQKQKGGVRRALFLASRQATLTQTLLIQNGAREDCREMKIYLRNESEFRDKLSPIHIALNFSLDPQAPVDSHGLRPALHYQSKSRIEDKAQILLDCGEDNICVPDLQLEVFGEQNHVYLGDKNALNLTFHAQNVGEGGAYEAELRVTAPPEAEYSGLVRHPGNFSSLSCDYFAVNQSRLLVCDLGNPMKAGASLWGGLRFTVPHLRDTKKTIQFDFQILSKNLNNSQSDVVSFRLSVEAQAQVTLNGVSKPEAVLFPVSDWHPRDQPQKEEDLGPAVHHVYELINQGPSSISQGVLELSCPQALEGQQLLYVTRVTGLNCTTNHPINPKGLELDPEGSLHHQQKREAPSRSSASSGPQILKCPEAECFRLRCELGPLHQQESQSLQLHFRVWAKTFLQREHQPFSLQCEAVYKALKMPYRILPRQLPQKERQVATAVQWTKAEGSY
T3 sequence (P05556 21-728 limits assumed): as the sequence (P05556 21-728 limits assumed) above

Q: With `COc1ccc([C@H](CC(=O)O)N2CCN(CCCc3ccc4c(n3)NCCC4)C2=O)cn1` [Compound A, 3-{2-Oxo-3-[3-(5,6,7,8-tetrahydro-[1,8]naphthyridin-2-yl)-propyl]imidazolidin-1-yl}-3 (S)-(6-methoxy-pyridin-3-yl)-propionic acid] as the compound, how does the IC50 ([1]; αvβ3, first of two experiments) read?
A: The IC50 was 5.2 nM.

Q: What about the IC50 ([1]; αvβ3, second of two experiments) of the same compound?
A: Its IC50 is 0.33 nM.

Q: And the ΔTm at 20 µM ([2]; first of two experiments)?
A: The ΔTm at 20 µM was 19.4 °C.

Q: And the ΔTm at 20 µM ([2]; second of two experiments)?
A: Its ΔTm at 20 µM is 15.6 °C.

Q: And the ΔTm at 20 µM ([3]; first of two experiments)?
A: Its ΔTm at 20 µM is 21.5 °C.

Q: What about the ΔTm at 20 µM ([3]; second of two experiments) of the same compound?
A: Its ΔTm at 20 µM is 16.4 °C.

Q: And the ΔTm at 20 µM ([4]; first of two experiments)?
A: Its ΔTm at 20 µM is 8.1 °C.

Q: And the ΔTm at 20 µM ([4]; second of two experiments)?
A: The ΔTm at 20 µM was 14 °C.

Q: And the “human podocyte motility, Compound A alone vs vehicle” value (human podocytes [5]; 48 hours, vitronectin coated plate)?
A: Its value is “significant inhibition of motility in a dose-dependent manner”.

Q: What about the “% migrated cells vs control cells” value (human podocytes [5]; A alone 0.01 nM) of the same compound?
A: Its value is 39.7%.

Q: And the “% migrated cells vs control cells” value (human podocytes [5]; A alone 0.0316 nM)?
A: The value was 43.7%.

Q: What about the “% migrated cells vs control cells” value (human podocytes [5]; A alone 0.1 nM) of the same compound?
A: Its value is 38.8%.

Q: What about the “% migrated cells vs control cells” value (human podocytes [5]; A alone 0.316 nM) of the same compound?
A: Its value is 38.6%.

Q: What about the “% migrated cells vs control cells” value (human podocytes [5]; A alone 1 nM) of the same compound?
A: The value was 33.4%.

Q: And the “% migrated cells vs control cells” value (human podocytes [5]; A alone 3.16 nM)?
A: Its value is 30.6%.

Q: And the “% migrated cells vs control cells” value (human podocytes [5]; A alone 10 nM)?
A: The value was 19.2%.

Q: What about the “% migrated cells vs control cells” value (human podocytes [5]; A alone 100 nM) of the same compound?
A: Its value is 20.5%.

Q: What about the “% migrated cells vs control cells” value (human podocytes [5]; A alone 1 uM) of the same compound?
A: The value was 17.9%.

Q: And the “% migrated cells vs control cells” value (human podocytes [5]; A alone 10 uM)?
A: The value was 17.9%.

Q: And the IC50 (human podocytes [6]; Homo sapiens, fibronectin coated plates, PAN 15 ug/ml, read-out: IC50, inhibition of puromycin-induced human podocyte motility)?
A: The IC50 was 1.12 nM.

Q: What about the “% migrated cells vs control cells” value (human podocytes [6]; PAN 15 ug/ml + A 0.01 nM) of the same compound?
A: The value was 76.3%.

Q: What about the “% migrated cells vs control cells” value (human podocytes [6]; PAN 15 ug/ml + A 0.0316 nM) of the same compound?
A: The value was 80.3%.

Q: What about the “% migrated cells vs control cells” value (human podocytes [6]; PAN 15 ug/ml + A 0.1 nM) of the same compound?
A: Its value is 84.9%.

Q: And the “% migrated cells vs control cells” value (human podocytes [6]; PAN 15 ug/ml + A 0.316 nM)?
A: The value was 83.6%.

Q: And the “% migrated cells vs control cells” value (human podocytes [6]; PAN 15 ug/ml + A 1 nM)?
A: Its value is 72.9%.

Q: And the “% migrated cells vs control cells” value (human podocytes [6]; PAN 15 ug/ml + A 3.16 nM)?
A: Its value is 64.8%.

Q: What about the “% migrated cells vs control cells” value (human podocytes [6]; PAN 15 ug/ml + A 10 nM) of the same compound?
A: The value was 54.1%.

Q: And the “% migrated cells vs control cells” value (human podocytes [6]; PAN 15 ug/ml + A 100 nM)?
A: The value was 35.8%.

Q: And the “% migrated cells vs control cells” value (human podocytes [6]; PAN 15 ug/ml + A 1 uM)?
A: The value was 36.3%.

Q: And the “% migrated cells vs control cells” value (human podocytes [6]; PAN 15 ug/ml + A 10 uM)?
A: Its value is 33.1%.
